Experiment: Effect of Meglumine on solubility (stressed at 60° C. for 24 hours, filtered)
Type: physicochemical
Details: Arginine+Aspartic acid buffer system
Experimental: The samples were stressed at 60° C. for 24 hours and were analyzed after filtration.

CNC[C@H](O)[C@@H](O)[C@H](O)[C@H](O)CO [meglumine]
effect on solubility of Aprepitant in the buffer system: improves the solubility of Aprepitant

From patent US11364229B2, “Triple combination formulations for antiemetic therapy” (LEIUTIS PHARMACEUTICALS PVT, LTD, priority 2017, dated 2022)
